Source: patent publication US20240092761A1, “QUINAZOLINE COMPOUNDS AND METHODS OF USE” (IAMBIC THERAPEUTICS, INC., priority 2022, published 2024)
Where two headings read alike, the source gives them in different places.

Legend:
CDK1/Cyclin B1 = CDK1/Cyclin B1 (Homo sapiens (Human), UniProt P06493); test: CDK1/Cyclin B1 ADP-Glo Kinase Assay; type: biochemical; conditions: 80 uM ATP
In short: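 Luminescent ADP-Glo detection of ADP produced over 90 min at room temperature. Enzyme complex 4.917 nM, pre-exposed 30 min to inhibitor; ATP 80 µM (near Km 78.6 µM), substrate 0.75 µM, HEPES pH 7.5, 2% DMSO. Fractional velocity fitted to 4-parameter IC50 equation.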

[1] = target: CDK2/Cyclin E1 full length (Homo sapiens (Human), UniProt P24941); test: CDK2/Cyclin E1 Full Length ADP-Glo Kinase Assay; type: biochemical; conditions: 20 uM ATP, read-out: CDK2/ CyclinE1 IC50
In short: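 ADP-Glo luminescence read-out of ADP formed by 0.328 nM wild-type full-length CDK2/Cyclin E1, 90 min at room temperature with 0.75 uM substrate and 20 uM ATP (Km 64.78 uM), after 30 min enzyme–inhibitor pre-incubation; 50 mM HEPES pH 7.5, 2% DMSO. Four-parameter IC50 fit.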

CDK4/Cyclin D1 = CDK4/Cyclin D1 (Homo sapiens (Human), UniProt P11802); test: CDK4/Cyclin D1 Mobility Shift Assay (MSA); type: biochemical; conditions: 0.2 mM ATP, read-out: CDK4/ CyclinD1 MSA IC50
CDK4/Cyclin D1, sequence (P11802 whole entry): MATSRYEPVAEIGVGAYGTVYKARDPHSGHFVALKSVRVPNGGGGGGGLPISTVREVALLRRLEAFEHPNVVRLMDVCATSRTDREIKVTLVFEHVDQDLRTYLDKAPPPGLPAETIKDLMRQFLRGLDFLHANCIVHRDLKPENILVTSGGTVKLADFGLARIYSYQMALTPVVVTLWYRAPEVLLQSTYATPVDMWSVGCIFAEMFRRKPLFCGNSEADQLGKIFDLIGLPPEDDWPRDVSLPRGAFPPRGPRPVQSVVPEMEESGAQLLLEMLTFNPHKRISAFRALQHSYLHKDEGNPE
CDK4/Cyclin D1, sequence (P24385 whole entry partner): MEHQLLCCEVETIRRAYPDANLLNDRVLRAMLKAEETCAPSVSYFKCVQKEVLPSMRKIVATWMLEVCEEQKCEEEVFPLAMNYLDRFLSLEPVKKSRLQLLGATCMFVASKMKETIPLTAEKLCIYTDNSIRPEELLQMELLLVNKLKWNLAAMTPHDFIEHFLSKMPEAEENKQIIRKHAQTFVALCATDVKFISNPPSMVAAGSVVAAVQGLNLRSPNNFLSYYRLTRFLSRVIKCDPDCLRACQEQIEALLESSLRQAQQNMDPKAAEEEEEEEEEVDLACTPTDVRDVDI
From the text: CDK4/Cyclin D1 Mobility Shift Assay (MSA)
The purpose CDK4/Cyclin D1 assay is to evaluate the inhibition (% inhibition and IC50 values) in the presence of small molecule inhibitors by using a fluorescence based microfluidic mobility shift assay. CDK4/Cyclin D1 catalyzes the production of ADP from ATP that accompanies the phosphoryl transfer to the substrate peptide 5-FAM-Dyrktide (5-FAM-RRRFRPASPLRGPPK) (Perkin Elmer Peptide 34). The mobility shift assay (MSA) electrophoretically separates the fluorescently labelled peptides (substrate and phosphorylated product) following the kinase reaction. Both substrate and product are measured, and the ratio of these values is used to generate % conversion of substrate to product by the LabChip EZ Reader. Typical reaction solutions contained 2% DMSO (+/−inhibitor), 10 mM MgCl2, 1 mM EGTA, 0.05% BSA, 2 mM DTT, 0.2 mM ATP, 0.01% Brig-35, 1.5 uM 5-FAM-Dyrktide, 2.5 nM CDK4/Cyclin D1 in 50 mM HEPES buffer at pH 7.5. The reaction was initiated with the addition of substrate solution, following a 30-minute pre-incubation of enzyme and inhibitor at 22° C. in the reaction mix. The reaction was stopped after 180 minutes by the addition of 75 uL of 500 mM EDTA and measured on a Perkin Elmer EZ reader instrument. IC50 determinations were made from a plot of the fractional velocity as a function of inhibitor concentration fit to the 4 parameters IC50 equation.

CDK6/Cyclin D3 = CDK6/Cyclin D3 (Homo sapiens (Human), UniProt Q00534); test: CDK6/Cyclin D3 ADP-Glo Kinase Assay; type: biochemical; conditions: 100 uM ATP, read-out: CDK6/ CyclinD3 IC50
CDK6/Cyclin D3, sequence (Q00534 whole entry): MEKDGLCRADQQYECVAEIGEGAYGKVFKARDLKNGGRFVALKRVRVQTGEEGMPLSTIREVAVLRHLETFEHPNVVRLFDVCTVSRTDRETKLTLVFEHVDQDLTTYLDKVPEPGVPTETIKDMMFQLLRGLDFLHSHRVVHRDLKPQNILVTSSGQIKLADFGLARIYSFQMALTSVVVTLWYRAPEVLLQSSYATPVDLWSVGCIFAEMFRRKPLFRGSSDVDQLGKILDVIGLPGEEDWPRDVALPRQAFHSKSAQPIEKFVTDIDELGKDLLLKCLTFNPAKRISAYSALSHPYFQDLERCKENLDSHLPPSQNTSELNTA
CDK6/Cyclin D3, sequence (P30281 whole entry partner): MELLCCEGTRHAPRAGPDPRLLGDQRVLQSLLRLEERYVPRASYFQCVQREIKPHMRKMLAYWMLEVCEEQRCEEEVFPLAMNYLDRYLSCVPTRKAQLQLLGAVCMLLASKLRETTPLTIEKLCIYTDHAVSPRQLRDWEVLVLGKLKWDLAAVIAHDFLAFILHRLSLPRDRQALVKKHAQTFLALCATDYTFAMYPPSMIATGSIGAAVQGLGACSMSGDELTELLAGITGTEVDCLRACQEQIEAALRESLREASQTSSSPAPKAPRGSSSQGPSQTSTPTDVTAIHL
In short: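 Luminescent ADP-Glo read-out of ADP produced, used to fit IC50 (4-parameter equation on fractional velocity against inhibitor concentration). Kinase reaction: enzyme and inhibitor together 30 min, then ATP-containing substrate added for 90 min, all at room temperature.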

MCF-7 cells = test: Cell Growth Inhibition, MCF-7 (CellTiterGlo, 6 days); type: cell-based; conditions: Homo sapiens, MCF7, 144 h; MCF-7, 6-day treatment, CellTiterGlo 2.0
In short: (§1)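 Compounds were run in half-log series, usually 10–10,000 nM, with 500 cells/well of OVCAR-3 or MCF-7 in RPMI plus 10% FBS. After a 6-day culture at 37 °C, viability was read by CellTiterGlo luminescence. Inhibition relative to control was fitted (four-parameter, variable slope) for IC50.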

OVCAR-3 cells = test: Cell Growth Inhibition, OVCAR-3 (CellTiterGlo, 6 days); type: cell-based; conditions: Homo sapiens, 144 h; OVCAR-3, 6-day treatment, CellTiterGlo 2.0
In short: as §1

CDK1/Cyclin B1, sequence (P06493 whole entry): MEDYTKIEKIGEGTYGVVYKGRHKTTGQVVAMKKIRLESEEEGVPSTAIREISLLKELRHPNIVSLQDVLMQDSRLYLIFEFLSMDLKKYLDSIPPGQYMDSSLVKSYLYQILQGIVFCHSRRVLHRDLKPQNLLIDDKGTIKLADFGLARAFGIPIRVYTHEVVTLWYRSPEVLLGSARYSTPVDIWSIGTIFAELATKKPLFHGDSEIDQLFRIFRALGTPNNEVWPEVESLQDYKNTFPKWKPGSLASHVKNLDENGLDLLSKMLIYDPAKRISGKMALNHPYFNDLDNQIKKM
CDK1/Cyclin B1, sequence (P14635 whole entry partner): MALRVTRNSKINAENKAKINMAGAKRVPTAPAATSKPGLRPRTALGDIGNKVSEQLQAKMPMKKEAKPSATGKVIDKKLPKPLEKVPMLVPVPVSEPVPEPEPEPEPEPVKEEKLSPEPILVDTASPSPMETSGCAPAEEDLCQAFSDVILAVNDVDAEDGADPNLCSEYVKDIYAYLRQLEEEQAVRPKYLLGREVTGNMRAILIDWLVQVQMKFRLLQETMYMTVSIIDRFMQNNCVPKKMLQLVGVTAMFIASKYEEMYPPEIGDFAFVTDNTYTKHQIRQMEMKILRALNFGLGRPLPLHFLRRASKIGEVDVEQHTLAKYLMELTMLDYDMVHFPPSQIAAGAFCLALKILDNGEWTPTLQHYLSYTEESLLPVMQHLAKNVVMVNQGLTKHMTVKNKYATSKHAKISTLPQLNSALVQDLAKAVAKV

| SMILES | IC50 (CDK1/Cyclin B1) [nM] | IC50 [1] [nM] | IC50 (CDK4/Cyclin D1) [nM] | IC50 (CDK6/Cyclin D3) [nM] | IC50 (MCF-7 cells) [nM] | IC50 (OVCAR-3 cells) [nM] | IC50 ([1]; given as number) [nM] |
| --- | --- | --- | --- | --- | --- | --- | --- |
| CC(=O)N1CCC2(CCN(c3cccc4cnc(NC5CCN(S(C)(=O)=O)CC5)nc34)C2)C1 (stereo not drawn) [Example 6, 1-(7-(2-((1-(methylsulfonyl)piperidin-4-yl)amino)quinazolin-8-yl)-2,7-diazaspiro[4.4]nonan-2-yl)ethan-1-one] | > 2000 | < 200 | < 200 | < 200 | > 2000 | > 2000 |  |
| CS(=O)(=O)N1CCC(Nc2ncc3cccc(N4CCC4CO)c3n2)CC1 (stereo not drawn) [Example 10, (1-(2-((1-(methylsulfonyl)piperidin-4-yl)amino)quinazolin-8-yl)azetidin-2-yl)methanol] | 200 to 500 | < 200 | < 200 | < 200 | > 2000 | > 2000 |  |
| CS(=O)(=O)N1CCC(Nc2ncc3cccc(N4CC(CC#N)C4)c3n2)CC1 [Example 14, 2-(1-(2-((1-(methylsulfonyl)piperidin-4-yl)amino)quinazolin-8-yl)azetidin-3-yl)acetonitrile] | 200 to 500 | < 200 | < 200 | < 200 | > 2000 | > 2000 |  |
| CS(=O)(=O)N1CCC(Nc2ncc3cccc(N4CCC5(CNC5)C4)c3n2)CC1 [Example 15, N-(1-(methylsulfonyl)piperidin-4-yl)-8-(2,6-diazaspiro[3.4]octan-6-yl)quinazolin-2-amine] | 200 to 500 | < 200 | < 200 | 200 to 500 | 200 to 500 | 500 to 2000 |  |
| CS(=O)(=O)N1CCC(Nc2ncc3cccc(N4CC5(CC(O)C5)C4)c3n2)CC1 [Example 18, 2-(2-((1-(methylsulfonyl)piperidin-4-yl)amino)quinazolin-8-yl)-2-azaspiro[3.3]heptan-6-ol] | < 200 | < 200 | < 200 | < 200 | 500 to 2000 | 500 to 2000 |  |
| CS(=O)(=O)N1CCC(Nc2ncc3cccc(N4CC5(CCS5(=O)=O)C4)c3n2)CC1 [Example 19, 6-(2-((1-(methylsulfonyl)piperidin-4-yl)amino)quinazolin-8-yl)-1-thia-6-azaspiro[3.3]heptane 1,1-dioxide] | 200 to 500 | < 200 | < 200 | < 200 | 500 to 2000 | 500 to 2000 |  |
| CN1CC2(CCN(c3cccc4cnc(NC5CCN(S(C)(=O)=O)CC5)nc34)C2)C1 [Example 24, 8-(2-methyl-2,6-diazaspiro[3.4]octan-6-yl)-N-(1-(methylsulfonyl)piperidin-4-yl)quinazolin-2-amine] | 200 to 500 | < 200 | < 200 | < 200 | 500 to 2000 | 500 to 2000 |  |
| CS(=O)(=O)N1CCC(Nc2ncc3cccc(N4CCC5(CCOCC5)C4)c3n2)CC1 [Example 26, N-(1-(methylsulfonyl)piperidin-4-yl)-8-(8-oxa-2-azaspiro[4.5]decan-2-yl)quinazolin-2-amine] | 500 to 2000 | < 200 | < 200 | < 200 | > 2000 | > 2000 |  |
| CS(=O)(=O)N1CCC(Nc2ncc3cccc(N4CCC(C#N)(C5CC5)C4)c3n2)CC1 (stereo not drawn) [Example 27, 3-cyclopropyl-1-(2-((1-(methylsulfonyl)piperidin-4-yl)amino)quinazolin-8-yl)pyrrolidine-3-carbonitrile] | 500 to 2000 | < 200 | < 200 | < 200 | > 2000 | > 2000 |  |
| CS(=O)(=O)N1CCC(Nc2ncc3cccc(N4CC5(CCNC5)C4)c3n2)CC1 [Example 31, N-(1-(methylsulfonyl)piperidin-4-yl)-8-(2,6-diazaspiro[3.4]octan-2-yl)quinazolin-2-amine] | 200 to 500 | < 200 | < 200 | 200 to 500 | 500 to 2000 | 500 to 2000 |  |
| CC(=O)N1CCC2(CCN(c3cccc4cnc(Nc5ccc(N6CCN(C)CC6)cc5)nc34)C2)C1 (stereo not drawn) [Example 33, 1-(7-(2-((4-(4-methylpiperazin-1-yl)phenyl)amino)quinazolin-8-yl)-2,7-diazaspiro[4.4]nonan-2-yl)ethan-1-one] | > 2000 |  | < 200 | < 200 | > 2000 | > 2000 | 5170 |
| COCCN1CC2(C1)CN(c1cccc3cnc(NC4CCN(S(C)(=O)=O)CC4)nc13)C2 [Example 36, 8-(6-(2-methoxyethyl)-2,6-diazaspiro[3.3]heptan-2-yl)-N-(1-(methylsulfonyl)piperidin-4-yl)quinazolin-2-amine] | 500 to 2000 | < 200 | < 200 | 500 to 2000 | > 2000 | > 2000 |  |
| CS(=O)(=O)N1CCC(Nc2ncc3cccc(N4CCC5(CCC5(F)F)C4)c3n2)CC1 (stereo not drawn) [Example 37, 8-(1,1-difluoro-6-azaspiro[3.4]octan-6-yl)-N-(1-(methylsulfonyl)piperidin-4-yl)quinazolin-2-amine] | 500 to 2000 | < 200 | < 200 | < 200 | > 2000 | > 2000 |  |
| CC(=O)N1CCC2(CCN(c3cccc4cnc(Nc5ccc6c(c5)CCN(C)C6)nc34)C2)C1 (stereo not drawn) [Example 38, 1-(7-(2-((2-methyl-1,2,3,4-tetrahydroisoquinolin-6-yl)amino)quinazolin-8-yl)-2,7-diazaspiro[4.4]nonan-2-yl)ethan-1-one] | > 2000 | 200 to 500 | < 200 | 200 to 500 | 500 to 2000 | 500 to 2000 |  |
| COCCN1CCC2(C1)CN(c1cccc3cnc(NC4CCN(S(C)(=O)=O)CC4)nc13)C2 [Example 39, 8-(6-(2-methoxyethyl)-2,6-diazaspiro[3.4]octan-2-yl)-N-(1-(methylsulfonyl)piperidin-4-yl)quinazolin-2-amine] | 500 to 2000 | < 200 | < 200 | 500 to 2000 | > 2000 | > 2000 |  |
| CN1CCC2(C1)CN(c1cccc3cnc(NC4CCN(S(C)(=O)=O)CC4)nc13)C2 [Example 40, 8-(6-methyl-2,6-diazaspiro[3.4]octan-2-yl)-N-(1-(methylsulfonyl)piperidin-4-yl)quinazolin-2-amine] | 500 to 2000 | 200 to 500 | 200 to 500 | 200 to 500 | > 2000 | > 2000 |  |
| CC(=O)N1CCC2(CCN(c3cccc4cnc(Nc5ccc(N6CC7(COC7)C6)cn5)nc34)C2)C1 (stereo not drawn) [Example 41, 1-(7-(2-((5-(2-oxa-6-azaspiro[3.3]heptan-6-yl)pyridin-2-yl)amino)quinazolin-8-yl)-2,7-diazaspiro[4.4]nonan-2-yl)ethan-1-one] | > 2000 | > 2000 | 200 to 500 | 500 to 2000 | > 2000 | > 2000 |  |
| CN1CC2(CCN(c3cccc4cnc(Nc5ccc(N6CC7(COC7)C6)cn5)nc34)C2)C1 [Example 42, N-(5-(2-oxa-6-azaspiro[3.3]heptan-6-yl)pyridin-2-yl)-8-(2-methyl-2,6-diazaspiro[3.4]octan-6-yl)quinazolin-2-amine] | > 2000 | > 2000 | < 200 | 200 to 500 | 200 to 500 | > 2000 |  |
